Assay results published in patent US20110028504A1, “Formulation of radioprotective alpha beta unsaturated aryl sulfones” (ONCONOVA THERAPEUTICS, INC., priority 2005, published 2011).
Entries after “also recorded” stand apart in the source; their conditions may differ. Marks after values point to notes of the source that are not given here.

Assay: pH stability testing at 75° C. (HPLC)
Type: physicochemical
Protocol: (§1) The drug is dissolved in different pH buffers as outlined in Table 20. One hundred mL of each solution is prepared in a volumetric flask. Each solution is filtered through a 0.22 um filter. Approximately, four mL of the above solution is placed in 5 ml ampoules and sealed by a propane torch. The pH of the solution is determined at time zero and at each time interval. All the ampoules are placed in a 75° C. constant temperature oven. Any color changes or precipitation in the solution during the sample collection is visually observed. Concentration of the drug is determined at time zero and other time intervals by HPLC.
as §1, with “prepared in volumetric flask.” for “prepared in a volumetric flask.”, “filtered through 0.22 um” for “filtered through a 0.22 um”, “by HPLC. The pH and drug content of each sample are determined.” for “by HPLC.”
The data from the pH stability study is analyzed by plotting Log (conc.) versus time.
The rate constant for the degradation is determined using a linear regression at each individual pH.

O=C([O-])c1ccc(/C=C/S(=O)(=O)Cc2ccc(Cl)cc2)cc1.[Na+] [ON.1210.Na, (E)-4-Carboxystyryl-4-chlorobenzylsulfone, Sodium Salt]
pH-stability profile (aqueous buffers pH 4 to 9, 75° C., Sodium Salt): better stability at neutral and biological pH but degradation is rapid under acidic condition; also recorded: dramatically improved as the pH is increased towards the neutral pH
order of the degradation reaction (aqueous buffers, 75° C., Sodium Salt): pseudo-first-order rate; also recorded: pseudo first order reaction
stability in an aqueous environment (biological pH): quite stable in an aqueous environment at biological pH
Kobs, first order rate constant for the degradation (pH 4.0, 75° C.): 0.0621 day⁻¹
Concentration of the ON.1210.Na determined by HPLC during the stability study (pH 4 buffer, 75° C., 0 hours, pH of the solution 4.03): 2.7047 µg/mL
Concentration of the ON.1210.Na determined by HPLC during the stability study (pH 4 buffer, 75° C., 1 day, pH of the solution 4.3): 2.659 µg/mL
Concentration of the ON.1210.Na determined by HPLC during the stability study (pH 4 buffer, 75° C., 3 days, pH of the solution 4.12): 2.6331 µg/mL
Concentration of the ON.1210.Na determined by HPLC during the stability study (pH 4 buffer, 75° C., 5 days, pH of the solution 4.5): 2.7344 µg/mL
Concentration of the ON.1210.Na determined by HPLC during the stability study (pH 4 buffer, 75° C., 42 days, pH of the solution 3.84): 0.1171 µg/mL
Concentration of the ON.1210.Na determined by HPLC during the stability study (pH 4 buffer, 75° C., 54 days, pH of the solution 3.74): 0.1614 µg/mL
Kobs, first order rate constant for the degradation (pH 5.0, 75° C.): 0.0295 day⁻¹
Concentration of the ON.1210.Na determined by HPLC during the stability study (pH 5 buffer, 75° C., 0 hours, pH of the solution 5.03): 4.4577 µg/mL
Concentration of the ON.1210.Na determined by HPLC during the stability study (pH 5 buffer, 75° C., 1 day, pH of the solution 5.18): 4.394 µg/mL
Concentration of the ON.1210.Na determined by HPLC during the stability study (pH 5 buffer, 75° C., 3 days, pH of the solution 5.11): 4.4295 µg/mL
Concentration of the ON.1210.Na determined by HPLC during the stability study (pH 5 buffer, 75° C., 5 days, pH of the solution 5.14): 4.4714 µg/mL
Concentration of the ON.1210.Na determined by HPLC during the stability study (pH 5 buffer, 75° C., 10 days, pH of the solution 5.2): 1.017 µg/mL
Concentration of the ON.1210.Na determined by HPLC during the stability study (pH 5 buffer, 75° C., 17 days, pH of the solution 5.21): 0.8382 µg/mL
Concentration of the ON.1210.Na determined by HPLC during the stability study (pH 5 buffer, 75° C., 28 days, pH of the solution 4.71): 1.3340 µg/mL
Concentration of the ON.1210.Na determined by HPLC during the stability study (pH 5 buffer, 75° C., 35 days, pH of the solution 4.93): 2.8137 µg/mL
Concentration of the ON.1210.Na determined by HPLC during the stability study (pH 5 buffer, 75° C., 42 days): 1.3049 µg/mL
Concentration of the ON.1210.Na determined by HPLC during the stability study (pH 5 buffer, 75° C., 54 days, pH of the solution 4.76): 0.9539 µg/mL
Kobs, first order rate constant for the degradation (pH 6.0, 75° C.): 0.0069 day⁻¹
Concentration of the ON.1210.Na determined by HPLC during the stability study (pH 6 buffer, 75° C., 0 hours, pH of the solution 6.02): 22.39 µg/mL
Concentration of the ON.1210.Na determined by HPLC during the stability study (pH 6 buffer, 75° C., 1 day, pH of the solution 6.12): 22.3 µg/mL
Concentration of the ON.1210.Na determined by HPLC during the stability study (pH 6 buffer, 75° C., 3 days, pH of the solution 6.21): 22.36 µg/mL
Concentration of the ON.1210.Na determined by HPLC during the stability study (pH 6 buffer, 75° C., 5 days, pH of the solution 6.14): 22.4945 µg/mL
Concentration of the ON.1210.Na determined by HPLC during the stability study (pH 6 buffer, 75° C., 10 days, pH of the solution 6.17): 19.0863 µg/mL
Concentration of the ON.1210.Na determined by HPLC during the stability study (pH 6 buffer, 75° C., 17 days, pH of the solution 6.21): 18.15 µg/mL
Concentration of the ON.1210.Na determined by HPLC during the stability study (pH 6 buffer, 75° C., 28 days, pH of the solution 5.81): 17.5401 µg/mL
Concentration of the ON.1210.Na determined by HPLC during the stability study (pH 6 buffer, 75° C., 35 days, pH of the solution 5.92): 17.3979 µg/mL
Concentration of the ON.1210.Na determined by HPLC during the stability study (pH 6 buffer, 75° C., 42 days, pH of the solution 5.94): 16 µg/mL
Concentration of the ON.1210.Na determined by HPLC during the stability study (pH 6 buffer, 75° C., 54 days, pH of the solution 5.90): 14.7174 µg/mL
Kobs, first order rate constant for the degradation (pH 7.4, 75° C.): 0.0037 day⁻¹
Concentration of the ON.1210.Na determined by HPLC during the stability study (pH 7.4 buffer, 75° C., 0 hours, pH of the solution 7.41): 485.952 µg/mL
Concentration of the ON.1210.Na determined by HPLC during the stability study (pH 7.4 buffer, 75° C., 1 day, pH of the solution 7.42): 485.8206 µg/mL
Concentration of the ON.1210.Na determined by HPLC during the stability study (pH 7.4 buffer, 75° C., 3 days, pH of the solution 7.52): 481.4637 µg/mL
Concentration of the ON.1210.Na determined by HPLC during the stability study (pH 7.4 buffer, 75° C., 5 days, pH of the solution 7.44): 484.009 µg/mL
Concentration of the ON.1210.Na determined by HPLC during the stability study (pH 7.4 buffer, 75° C., 10 days, pH of the solution 7.42): 473.2525 µg/mL
Concentration of the ON.1210.Na determined by HPLC during the stability study (pH 7.4 buffer, 75° C., 17 days, pH of the solution 7.41): 466.5611 µg/mL
Concentration of the ON.1210.Na determined by HPLC during the stability study (pH 7.4 buffer, 75° C., 28 days, pH of the solution 7.2): 434.5598 µg/mL
Concentration of the ON.1210.Na determined by HPLC during the stability study (pH 7.4 buffer, 75° C., 35 days, pH of the solution 7.34): 428.5503 µg/mL
Concentration of the ON.1210.Na determined by HPLC during the stability study (pH 7.4 buffer, 75° C., 42 days, pH of the solution 7.36): 416.3353 µg/mL
Concentration of the ON.1210.Na determined by HPLC during the stability study (pH 7.4 buffer, 75° C., 54 days, pH of the solution 7.31): 403.267 µg/mL
Kobs, first order rate constant for the degradation (pH 8.0, 75° C.): 0.0064 day⁻¹
Concentration of the ON.1210.Na determined by HPLC during the stability study (pH 8.0 buffer, 75° C., 0 hours, pH of the solution 8.01): 494.8540 µg/mL
Concentration of the ON.1210.Na determined by HPLC during the stability study (pH 8.0 buffer, 75° C., 1 day, pH of the solution 8.08): 493.8002 µg/mL
Concentration of the ON.1210.Na determined by HPLC during the stability study (pH 8.0 buffer, 75° C., 3 days, pH of the solution 8.04): 485.8134 µg/mL
Concentration of the ON.1210.Na determined by HPLC during the stability study (pH 8.0 buffer, 75° C., 5 days, pH of the solution 7.98): 486.042 µg/mL
Concentration of the ON.1210.Na determined by HPLC during the stability study (pH 8.0 buffer, 75° C., 10 days, pH of the solution 7.98): 462.5487 µg/mL
Concentration of the ON.1210.Na determined by HPLC during the stability study (pH 8.0 buffer, 75° C., 17 days, pH of the solution 8.02): 441.454 µg/mL
Concentration of the ON.1210.Na determined by HPLC during the stability study (pH 8.0 buffer, 75° C., 28 days, pH of the solution 7.81): 398.9563 µg/mL
Concentration of the ON.1210.Na determined by HPLC during the stability study (pH 8.0 buffer, 75° C., 35 days, pH of the solution 7.33, new degradation product with retention time 4.52 min): 249.7589** μg/mL
Concentration of the ON.1210.Na determined by HPLC during the stability study (pH 8.0 buffer, 75° C., 42 days, pH of the solution 7.36): 378.4188 µg/mL
Concentration of the ON.1210.Na determined by HPLC during the stability study (pH 8.0 buffer, 75° C., 54 days, pH of the solution 7.9): 353.5676 µg/mL
Kobs, first order rate constant for the degradation (pH 9.0, 75° C.): 0.0104 day⁻¹
Concentration of the ON.1210.Na determined by HPLC during the stability study (pH 9.0 buffer, 75° C., 0 hours, pH of the solution 9.02): 475.7458 µg/mL
Concentration of the ON.1210.Na determined by HPLC during the stability study (pH 9.0 buffer, 75° C., 1 day, pH of the solution 9.1): 463.3368 µg/mL
Concentration of the ON.1210.Na determined by HPLC during the stability study (pH 9.0 buffer, 75° C., 3 days, pH of the solution 9.12): 436.1314 µg/mL
Concentration of the ON.1210.Na determined by HPLC during the stability study (pH 9.0 buffer, 75° C., 5 days, pH of the solution 8.72): 422.51 µg/mL
Concentration of the ON.1210.Na determined by HPLC during the stability study (pH 9.0 buffer, 75° C., 10 days, pH of the solution 8.74): 379.1650 µg/mL
Concentration of the ON.1210.Na determined by HPLC during the stability study (pH 9.0 buffer, 75° C., 17 days, pH of the solution 8.75): 351.6448 µg/mL
Concentration of the ON.1210.Na determined by HPLC during the stability study (pH 9.0 buffer, 75° C., 28 days, pH of the solution 8.53): 304.3917 µg/mL
Concentration of the ON.1210.Na determined by HPLC during the stability study (pH 9.0 buffer, 75° C., 35 days, pH of the solution 8.46, two new degradation products with retention time of 4.52 and 3.6 minutes): 199.584*** μg/mL
Concentration of the ON.1210.Na determined by HPLC during the stability study (pH 9.0 buffer, 75° C., 42 days, pH of the solution 8.45): 300.1106 µg/mL
Concentration of the ON.1210.Na determined by HPLC during the stability study (pH 9.0 buffer, 75° C., 54 days, pH of the solution 8.47): 267.741 µg/mL
